The subject of data set [1] is CTLL-2. Nature of the data set: Induction of ferroptosis in mouse CTLL-2 cells assessed as decrease in GSH level incubated for 16 hrs. The class given is functional, cell-based. As to conditions: dose 7.5-30 µM.
The nature of data set [2]: Acute toxicity in 12 hr-fasted KM mouse assessed as animal survival at 10 g/kg, po administered as single dose measured for 14 days. The class given is organism-based. As to conditions: in vivo, 10000 mg/kg, 336 h, time 14 day.
Data set [3] has as its system Mus musculus. Put plainly: Anti-aplastic anemia activity in C57BL/6J mouse model of immune-mediated bone marrow failure assessed as reduction in proportion of effector CD8+ T cells at 5 to 15 mg/kg, IG qd treated for 12 days by flow cytometry. As to conditions: dose 5-15 mg/kg, time 12.0 day. The class given is functional, organism-based. On the technique in general: A flow cytometer gives signals particle by particle.

The test system of data set [4] is Mus musculus. Nature of the data set: Anti-aplastic anemia activity in C57BL/6J mouse model of immune-mediated bone marrow failure assessed as decrease in CD8+ T cells at 5 to 15 mg/kg, IG qd treated for 12 days by flow cytometry. The class given is functional, organism-based. As to conditions: dose 5-15 mg/kg, time 12.0 day.
Data set [5] relates to Mus musculus. Nature of the data set: Anti-aplastic anemia activity in C57BL/6J mouse model of immune-mediated bone marrow failure assessed as reduction in IFN-gamma level at 5 to 15 mg/kg, IG qd treated for 12 days by ELISA. The class given is functional, organism-based. As to conditions: dose 5-15 mg/kg, time 12.0 day.
In data set [6] the test system is Mus musculus. Nature of the data set: Anti-aplastic anemia activity in BALB/c mouse model of immune-mediated bone marrow failure assessed as decrease in abnormal proportion of lymphocytes in bone marrow at 10 mg/kg, po treated for 14 days by H and E staining based analysis. The format is functional, organism-based. The following applies: time 14.0 day.
The test system of data set [7] is CTLL-2. Nature of the data set: Induction of ferroptosis in mouse CTLL-2 cells assessed as increase in pMEK level at 7.5 to 30 uM incubated for 16 hrs by Western blot analysis. The class given is functional, cell-based. The following applies: dose 7.5-30 µM.
The subject of data set [8] is Mus musculus. Nature of the data set: Anti-aplastic anemia activity in C57BL/6J mouse model of immune-mediated bone marrow failure assessed as decrease in ratio of CD8+ to CD4+ T cells at 5 to 15 mg/kg, IG qd treated for 12 days by flow cytometry. The class given is functional, organism-based. As to conditions: dose 5-15 mg/kg, time 12.0 day.
For data set [9], the system named is CTLL-2. Nature of the data set: Induction of ferroptosis in IL-2-stimulated mouse CTLL-2 cells assessed as increase in intracellular lipid peroxidation level at 30 uM incubated for 6 hrs followed by Fer-1 addition measured after 10 hrs by flow cytometry. As to conditions: time 16.0 hrs. The class given is functional, cell-based.
Data set [10] has as its system CD8-positive T cell. Nature of the data set: Inhibition of CD3/CD28-activated CD8-positive T cell activation in BALB/c mouse lymph nodes assessed as decrease in glucose consumption at 1 to 10 uM incubated for 72 hrs. The following applies: Lymph node, dose 1-10 µM. The class given is functional, tissue-based.
For data set [11], the system named is CD8-positive T cell. Nature of the data set: Inhibition of CD3/CD28-activated CD8-positive T cell activation in BALB/c mouse lymph nodes assessed as decrease in IFN-gamma level at 1 to 10 uM incubated for 72 hrs by ELISA. The class given is functional, tissue-based. As to conditions: Lymph node, dose 1-10 µM. A general note: ELISA stands for enzyme-linked immunosorbent assay.

Data set [12] concerns Mus musculus. Nature of the data set: Anti-aplastic anemia activity in BALB/c mouse model of immune-mediated bone marrow failure assessed as increase in platelet cells at 10 mg/kg, po treated for 14 days. The class given is functional, organism-based. The following applies: time 14.0 day.
The next data set deals with IEC-6. Put plainly: Cytotoxicity against rat IEC-6 cells assessed as inhibition of cell viability incubated for 72 hrs by CCK8 assay. The class given is functional, cell-based. The following applies: IEC-6, 72 h. Background: Tetrazolium dyes change colour on reduction, which living cells bring about.
In another data set the test system is RAW264.7. Put plainly: Cytotoxicity against mouse RAW264.7 cells assessed as inhibition of cell viability incubated for 72 hrs by CCK8 assay. The format is functional, cell-based. As to conditions: RAW264.7, 72 h.
Data set [13] has as its system CD8-positive T cell. Put plainly: Inhibition of CD3/CD28-activated CD8-positive T cell activation in BALB/c mouse lymph nodes assessed as decrease in TNF-alpha level at 1 to 10 uM incubated for 72 hrs by ELISA. The format is functional, tissue-based. The following applies: Lymph node, dose 1-10 µM.
For data set [14], the system named is CTLL-2. Nature of the data set: Induction of ferroptosis in mouse CTLL-2 cells assessed as increase in mitochondrial superoxide level incubated for 16 hrs by MitoSOX Red staining based fluorescent microscopy. The class given is functional, cell-based. As to conditions: dose 7.5-30 µM.
The subject of the next data set is THP-1. Nature of the data set: Cytotoxicity against human THP-1 cells assessed as inhibition of cell viability incubated for 72 hrs by CCK8 assay. The class given is functional, cell-based. The following applies: THP-1, 72 h.
The subject of data set [15] is Mus musculus. Put plainly: Anti-aplastic anemia activity in C57BL/6J mouse model of immune-mediated bone marrow failure assessed as increase in peripheral red blood cells treated intragastrically once daily for 21 days. The class given is functional, organism-based. The following applies: dose 5-15 mg/kg, route ig, time 21.0 day.
Data set [16] can be described thus: AUC in Sprague-Dawley rat at 50 mg/kg, po measured for 0.083 to 24 hrs by HPLC analysis. The class given is ADME, organism-based. The following applies: in vivo, time 0.083-24 hrs.
Data set [17] relates to Mus musculus. Put plainly: Anti-aplastic anemia activity in BALB/c mouse model of immune-mediated bone marrow failure assessed as restoration of nucleated to red blood cell ratio in bone marrow at 10 mg/kg, po treated for 14 days by H and E staining based analysis. The class given is functional, organism-based. The following applies: time 14.0 day.
In data set [18] the test system is CTLL-2. Nature of the data set: Induction of ferroptosis in mouse CTLL-2 cells assessed as increase in ROS level at 10 uM incubated for 45 mins in presence of CM4620. The format is functional, cell-based.
In data set [19] the test system is Mus musculus. Nature of the data set: Anti-aplastic anemia activity in C57BL/6J mouse model of immune-mediated bone marrow failure assessed as decrease in histopathological change in bone marrow treated intragastrically once daily for 21 days by H and E staining based analysis. The format is functional, organism-based. As to conditions: dose 5-15 mg/kg, route ig, time 21.0 day.

Data set [20] relates to CTLL-2. Put plainly: Induction of ferroptosis in mouse CTLL-2 cells assessed as increase in p-p38 level at 7.5 to 30 uM incubated for 16 hrs by Western blot analysis. The class given is functional, cell-based. As to conditions: dose 7.5-30 µM.
Data set [21] in a line: Stability in mouse thymus assessed as compound remaining at 50 mg/kg, po measured for 0.083 to 8 hrs by HPLC analysis. The format is ADME, organism-based. The following applies: in vivo, time 0.083-8 hrs.
The nature of data set [22]: Drug metabolism in rat plasma assessed as hydrolyzation/double hydroxylation-mediated metabolite formation at 50 mg/kg, po measured for 24 hrs by HRMS analysis. The format is ADME, organism-based. As to conditions: in vivo.
The nature of data set [23]: Drug metabolism in rat plasma assessed as hydrolyzation/demethylation-mediated metabolite formation at 50 mg/kg, po measured for 24 hrs by HRMS analysis. As to conditions: in vivo. The class given is ADME, organism-based.
Data set [24] can be described thus: Drug metabolism in rat plasma assessed as double hydrolyzation/demethylation-mediated metabolite formation at 50 mg/kg, po measured for 24 hrs by HRMS analysis. The class given is ADME, organism-based. The following applies: in vivo.
Data set [25] is described as follows: Stability in mouse small intestine assessed as compound remaining at 50 mg/kg, po measured for 0.083 to 8 hrs by HPLC analysis. The class given is ADME, organism-based. As to conditions: in vivo, time 0.083-8 hrs.
Data set [26] can be described thus: Drug metabolism in mouse liver assessed as (4bR,9S)-1-(hydroxymethyl)-3,7-dimethoxy-11-methyl-6-oxo-6,8a,9,10-tetrahydro-5H-9,4b-(epiminoethano)phenanthren-4-yl cinnamate metabolite formation at 50 mg/kg, po measured for 0.083 to 8 hrs by HPLC analysis. The class given is ADME, organism-based. As to conditions: in vivo, time 0.083-8 hrs.
A short description of data set [27]: Drug metabolism in mouse kidney assessed as cinnamic acid metabolite formation at 50 mg/kg, po measured for 0.083 to 8 hrs by HPLC analysis. The class given is ADME, organism-based. The following applies: in vivo, time 0.083-8 hrs.
The nature of data set [28]: Drug metabolism in Sprague-Dawley rat plasma assessed as (4bR,9S)-1-(hydroxymethyl)-3,7-dimethoxy-11-methyl-6-oxo-6,8a,9,10-tetrahydro-5H-9,4b-(epiminoethano)phenanthren-4-yl cinnamate metabolite formation at 5 mg/kg, iv measured for 24 hrs by HPLC analysis. The class given is ADME, organism-based. The following applies: in vivo.
Data set [29] can be described thus: Stability in mouse spleen assessed as compound remaining at 50 mg/kg, po measured for 0.083 to 8 hrs by HPLC analysis. The class given is ADME, organism-based. As to conditions: in vivo, time 0.083-8 hrs.
Data set [30] is described as follows: Stability in mouse liver assessed as compound remaining at 50 mg/kg, po measured for 0.083 to 8 hrs by HPLC analysis. The format is ADME, organism-based. The following applies: in vivo, time 0.083-8 hrs.
The nature of data set [31]: Stability in mouse blood assessed as compound remaining at 50 mg/kg, po measured for 0.083 to 8 hrs by HPLC analysis. As to conditions: in vivo, time 0.083-8 hrs. The format is ADME, organism-based.

Data on two molecules can be found in ChEMBL document CHEMBL6177973, “A Novel Compound 3a-M1, from Metabolites of Sinomenine Derivative 3a, Exerts Potent Anti-Aplastic Anemia Activity via IP3R/ORAI-Mediated CTL Ferroptosis” (J Med Chem, 2025).

Molecules are shown by their SMILES. The source made the active and inactive calls. No cut-off for these calls is given here.

As for `COC1=C[C@@H]2[C@@H]3Cc4c(CO)cc(OC)c(OC(=O)/C=C/c5ccccc5)c4[C@]2(CCN3C)CC1=O`, the Activity result with CTLL-2 [1] is “Dose-dependent-effect”; in data set [2], “Non-toxic”; with CTLL-2 [14] it was “Dose-dependent-effect”; in the data set with Mus musculus [15] it was “Dose-dependent-effect”; with Mus musculus [19], “Dose-dependent-effect”. Besides, the outcome with Mus musculus [3], in the data set on Mus musculus [4], with Mus musculus [5], in the data set with Mus musculus [6], with CTLL-2 [7] and in the data set with Mus musculus [8] was Active. Further, the outcome in the data set with Mus musculus [12], in the data set with Mus musculus [17] and with CTLL-2 [20] was Active. Moreover, the result in the data set with CTLL-2 [9] and in the data set on CTLL-2 [18] was inactive. In addition, the inhibition result in the data set with CD8-positive T cell [10], with CD8-positive T cell [11] and in the data set on CD8-positive T cell [13] was “Active” each time. Besides, the IC50 (as a rule, the concentration needed to halve the response being measured) stood at 84.3 µM in the data set with IEC-6, 492 µM in the data set on RAW264.7 and 125 µM with THP-1. Also, in [16], the AUC (usually concentration integrated over time) was determined as 15400 ng·h/mL.

As for `COC1=C[C@@H]2[C@@H]3Cc4c(COC(=O)/C=C/c5ccccc5)cc(OC)c(OC(=O)/C=C/c5ccccc5)c4[C@]2(CCN3C)CC1=O`, the Stability result in [21] is “Unstable”; in data set [25], “Stable”; in data set [29], “Unstable”; in [30], “Unstable”; in data set [31], “Unstable”. Also, the Drug metabolism entry in data set [22], in [23], in data set [24], in [26], in data set [27] and in data set [28] was “metabolite_detected” each time.
